These results are taken from ChEMBL document CHEMBL5346923, “Novel pyridinium cationic pleuromutilin analogues overcoming bacterial multidrug resistance” (Eur J Med Chem, 2023).

Holding throughout (assay type): functional
Assay [1] relates to Enterococcus. The assay can be described thus: Antibacterial activity against vancomycin-resistant Enterococcus ATCC 700221 assessed as inhibition of bacterial growth measured after 24 hrs by MH broth based assay.
The test system of assay [2] is Escherichia coli. Nature of the assay: Antibacterial activity against Escherichia coli MG1655 harbouring acrB gene assessed as inhibition of bacterial growth measured after 24 hrs by MH broth based assay.
The subject of assay [3] is Escherichia coli. The assay can be described thus: Antibacterial activity against Escherichia coli MG1655 assessed as inhibition of bacterial growth measured after 24 hrs by MH broth based assay.
Assay [4] has as its system Escherichia coli. The assay can be described thus: Antibacterial activity against Escherichia coli ATCC 25922 assessed as inhibition of bacterial growth measured after 24 hrs by MH broth based assay.
Assay [5] relates to Bacillus subtilis. The assay can be described thus: Antibacterial activity against Bacillus subtilis ATCC 6633 assessed as inhibition of bacterial growth measured after 24 hrs by MH broth based assay.
The subject of assay [6] is Proteus. Nature of the assay: Antibacterial activity against Proteus CMCC (B) 49027 assessed as inhibition of bacterial growth measured after 24 hrs by MH broth based assay.
The subject of assay [7] is Staphylococcus epidermidis. Nature of the assay: Antibacterial activity against methicillin-resistant Staphylococcus epidermidis ATCC 51625 assessed as inhibition of bacterial growth measured after 24 hrs by MH broth based assay.
The subject of assay [8] is Streptococcus pneumoniae. Nature of the assay: Antibacterial activity against Streptococcus pneumoniae ATCC 49619 assessed as inhibition of bacterial growth measured after 24 hrs by MH broth based assay.
Assay [9] has as its system Staphylococcus aureus. Nature of the assay: Antibacterial activity against Staphylococcus aureus ATCC 29213 assessed as inhibition of bacterial growth measured after 24 hrs by MH broth based assay.
Assay [10] concerns Klebsiella pneumoniae. Nature of the assay: Antibacterial activity against Klebsiella pneumonia CMCC (B) 46117 assessed as inhibition of bacterial growth measured after 24 hrs by MH broth based assay.
Assay [11] deals with Staphylococcus aureus. Nature of the assay: Antibacterial activity against methicillin-resistant Staphylococcus aureus ATCC 43300 assessed as inhibition of bacterial growth measured after 24 hrs by MH broth based assay.

SMILES strings stand for the structures.

`C=C[C@]1(C)C[C@@H](OC(=O)CSc2cc[n+](Cc3ccc(C(=O)OC(C)(C)C)cc3)cc2)[C@]2(C)[C@H](C)CC[C@]3(CCC(=O)[C@H]32)[C@@H](C)[C@@H]1O.[I-]`: the MIC (in general, the smallest concentration in the dilution series that meets the test's criterion for growth inhibition) is 64 µg/mL in [1]; 4 µg/mL in assay [2]; 64 µg/mL in assay [3]; 64 µg/mL in [4]; 64 µg/mL in [5]; greater than 64 µg/mL in assay [6]. For the same compound, the MIC was 0.5 µg/mL in assay [7]; 0.25 µg/mL in assay [8]; 1 µg/mL in assay [9]; 64 µg/mL in assay [10]; 1 µg/mL in [11].
For `C=C[C@]1(C)C[C@@H](OC(=O)CSc2cc[n+](CC(=O)NC3CCCC3)cc2)[C@]2(C)[C@H](C)CC[C@]3(CCC(=O)[C@H]32)[C@@H](C)[C@@H]1O.[I-]`, the MIC was 64 µg/mL in assay [1]; 8 µg/mL in assay [2]; 64 µg/mL in assay [3]; 64 µg/mL in [4]; greater than 64 µg/mL in [5]; greater than 64 µg/mL in assay [6]. The MIC in assay [7] stood at 1 µg/mL; in assay [8], 1 µg/mL; in assay [9], 4 µg/mL; in assay [10], 64 µg/mL; in assay [11], 4 µg/mL.
For `C=C[C@]1(C)C[C@@H](OC(=O)CSc2cc[n+](CCCCCCCCCCCC)cc2)[C@]2(C)[C@H](C)CC[C@]3(CCC(=O)[C@H]32)[C@@H](C)[C@@H]1O.[I-]`, the MIC is 16 µg/mL in assay [1]; 8 µg/mL in assay [2]; 32 µg/mL in assay [3]; 32 µg/mL in [4]; 8 µg/mL in assay [5]; 64 µg/mL in [6]. For the same compound, the MIC is 8 µg/mL in assay [7]; 4 µg/mL in assay [8]; 8 µg/mL in assay [9]; 32 µg/mL in [10]; 8 µg/mL in assay [11].
For the compound `C=C[C@]1(C)C[C@@H](OC(=O)CSc2cc[n+](CC(=O)O)cc2)[C@]2(C)[C@H](C)CC[C@]3(CCC(=O)[C@H]32)[C@@H](C)[C@@H]1O.[I-]`, the MIC was 64 µg/mL in assay [1]; 32 µg/mL in [2]; greater than 64 µg/mL in assay [3]; greater than 64 µg/mL in assay [4]; greater than 64 µg/mL in assay [5]; greater than 64 µg/mL in assay [6]. In addition, the minimum inhibitory concentration (MIC) in [7] is 2 µg/mL; in assay [8] it was 2 µg/mL; in assay [9], 8 µg/mL; in [10], greater than 64 µg/mL; in assay [11], 4 µg/mL.
In the case of `C=CC[n+]1ccc(SCC(=O)O[C@@H]2C[C@@](C)(C=C)[C@@H](O)[C@H](C)[C@]34CCC(=O)[C@H]3[C@@]2(C)[C@H](C)CC4)cc1.[I-]`, the MIC in [1] is 32 µg/mL; in assay [2], 1 µg/mL; in assay [3] it was 64 µg/mL; in [4] it was 64 µg/mL; in assay [5], 64 µg/mL; in [6], greater than 64 µg/mL. Also, the MIC in [7] stood at 0.25 µg/mL; in assay [8] it was 0.25 µg/mL; in [9], 0.5 µg/mL; in [10], 64 µg/mL; in [11], 1 µg/mL.
As for `C=C[C@]1(C)C[C@@H](OC(=O)CSc2cc[n+](CC(=O)N(Cc3ccccc3)Cc3ccccc3)cc2)[C@]2(C)[C@H](C)CC[C@]3(CCC(=O)[C@H]32)[C@@H](C)[C@@H]1O.[I-]`, the MIC in assay [1] was 64 µg/mL; in [2] it was 4 µg/mL; in assay [3] it was 64 µg/mL; in assay [4], 64 µg/mL; in [5], 16 µg/mL; in assay [6] it was greater than 64 µg/mL. Further, the MIC in assay [7] is 0.063 µg/mL; in assay [8], less than 0.031 µg/mL; in assay [9], 0.25 µg/mL; in [10] it was 32 µg/mL; in [11], 0.25 µg/mL.
Consider `C=C[C@]1(C)C[C@@H](OC(=O)CSc2cc[n+](CCCCCCCCCCC(=O)O)cc2)[C@]2(C)[C@H](C)CC[C@]3(CCC(=O)[C@H]32)[C@@H](C)[C@@H]1O.[I-]`, for which the MIC is 64 µg/mL in assay [1]; 32 µg/mL in [2]; 64 µg/mL in [3]; 64 µg/mL in assay [4]; 64 µg/mL in [5]; 64 µg/mL in assay [6]. Also, the MIC is 2 µg/mL in assay [7]; 0.5 µg/mL in [8]; 0.5 µg/mL in assay [9]; 64 µg/mL in assay [10]; 0.5 µg/mL in [11].
Regarding `C=C[C@]1(C)C[C@@H](OC(=O)CSc2cc[n+](CCC)cc2)[C@]2(C)[C@H](C)CC[C@]3(CCC(=O)[C@H]32)[C@@H](C)[C@@H]1O.[I-]`, the MIC in assay [1] worked out at 16 µg/mL; in assay [2], 0.5 µg/mL; in [3] it was 64 µg/mL; in assay [4], 64 µg/mL; in [5] it was 64 µg/mL; in assay [6], 64 µg/mL. For the same compound, the MIC in assay [7] stood at 0.125 µg/mL; in assay [8] it was 0.063 µg/mL; in assay [9] it was 0.25 µg/mL; in assay [10] it was 32 µg/mL; in assay [11], 0.25 µg/mL.
Regarding `C=C[C@]1(C)C[C@@H](OC(=O)CSc2cc[n+](CC(=O)NCc3ccccc3C)cc2)[C@]2(C)[C@H](C)CC[C@]3(CCC(=O)[C@H]32)[C@@H](C)[C@@H]1O.[I-]`, the MIC stood at 64 µg/mL in assay [1]; 1 µg/mL in assay [2]; 32 µg/mL in [3]; 64 µg/mL in [4]; 64 µg/mL in [5]; 64 µg/mL in [6]. In addition, the MIC in assay [7] was 1 µg/mL; in assay [8] it was 0.5 µg/mL; in [9], 0.5 µg/mL; in assay [10] it was 8 µg/mL; in assay [11], 0.5 µg/mL.
Turning to `C=C[C@]1(C)C[C@@H](OC(=O)CSc2cc[n+](CC(=O)N3CCCCC3)cc2)[C@]2(C)[C@H](C)CC[C@]3(CCC(=O)[C@H]32)[C@@H](C)[C@@H]1O.[I-]`, the MIC in [1] is 64 µg/mL; in [2], 2 µg/mL; in assay [3], 64 µg/mL; in [4] it was 64 µg/mL; in [5], greater than 64 µg/mL; in assay [6] it was greater than 64 µg/mL. Besides, the MIC came out at 0.125 µg/mL in assay [7]; 0.125 µg/mL in assay [8]; 0.25 µg/mL in [9]; 64 µg/mL in assay [10]; 0.25 µg/mL in assay [11].
`C=C[C@]1(C)C[C@@H](OC(=O)CSc2cc[n+](CCCCCCCCCC)cc2)[C@]2(C)[C@H](C)CC[C@]3(CCC(=O)[C@H]32)[C@@H](C)[C@@H]1O.[I-]`: the MIC in assay [1] worked out at 4 µg/mL; in [2], 1 µg/mL; in [3], 16 µg/mL; in assay [4], 16 µg/mL; in assay [5] it was 2 µg/mL; in assay [6], 64 µg/mL. Moreover, the MIC in [7] stood at 0.5 µg/mL; in [8] it was 0.125 µg/mL; in [9] it was 0.25 µg/mL; in assay [10], 2 µg/mL; in assay [11], 1 µg/mL.
As to `C#CC[n+]1ccc(SCC(=O)O[C@@H]2C[C@@](C)(C=C)[C@@H](O)[C@H](C)[C@]34CCC(=O)[C@H]3[C@@]2(C)[C@H](C)CC4)cc1.[I-]`, the MIC is 16 µg/mL in assay [1]; 0.5 µg/mL in assay [2]; 64 µg/mL in [3]; 64 µg/mL in assay [4]; 32 µg/mL in assay [5]; greater than 64 µg/mL in assay [6]. In addition, the MIC in assay [7] is 0.031 µg/mL; in assay [8] it was less than 0.031 µg/mL; in [9], 0.125 µg/mL; in assay [10], 8 µg/mL; in [11], 0.125 µg/mL.
Consider `C=C[C@]1(C)C[C@@H](OC(=O)CSc2cc[n+](CCCO)cc2)[C@]2(C)[C@H](C)CC[C@]3(CCC(=O)[C@H]32)[C@@H](C)[C@@H]1O.[I-]`, for which the MIC in assay [1] is 64 µg/mL; in assay [2], 0.5 µg/mL; in assay [3], 64 µg/mL; in assay [4], 64 µg/mL; in assay [5] it was 64 µg/mL; in [6], greater than 64 µg/mL. Further, the MIC in assay [7] was found to be 0.5 µg/mL; in [8], 0.25 µg/mL; in assay [9], 1 µg/mL; in assay [10] it was 32 µg/mL; in [11], 1 µg/mL.
For `C=C[C@]1(C)C[C@@H](OC(=O)CSc2cc[n+](CC3CCCO3)cc2)[C@]2(C)[C@H](C)CC[C@]3(CCC(=O)[C@H]32)[C@@H](C)[C@@H]1O.[I-]` (stereo not given in full), the MIC is 64 µg/mL in assay [1]; 2 µg/mL in assay [2]; 64 µg/mL in [3]; 64 µg/mL in assay [4]; 64 µg/mL in [5]; greater than 64 µg/mL in [6]. For the same compound, the MIC is 0.25 µg/mL in assay [7]; 0.125 µg/mL in [8]; 1 µg/mL in assay [9]; 64 µg/mL in assay [10]; 1 µg/mL in [11].
As for `C=C[C@]1(C)C[C@@H](OC(=O)CSc2cc[n+](Cc3ccc(-c4ccccc4C#N)cc3)cc2)[C@]2(C)[C@H](C)CC[C@]3(CCC(=O)[C@H]32)[C@@H](C)[C@@H]1O.[I-]`, the MIC in [1] is 32 µg/mL; in [2], 8 µg/mL; in assay [3] it was 64 µg/mL; in [4], 64 µg/mL; in assay [5], 32 µg/mL; in assay [6], greater than 64 µg/mL. Also, the MIC in assay [7] is 0.125 µg/mL; in [8], less than 0.031 µg/mL; in [9] it was 1 µg/mL; in [10] it was 32 µg/mL; in assay [11] it was 1 µg/mL.
